For seven molecules, IC50 and EC50 results are on record in patent US10618916B2, “Heterocyclic compounds as immunomodulators” (Incyte Corporation, priority 2018, dated 2020).

For one test, the target named is PD-L1 (Homo sapiens (Human), UniProt Q9NZQ7). Briefly: PD-L1 whole blood internalization assay. Particulars: 24 HR, PD-L1 expression on CD14+ cells, human interferon γ. The test is classed as cell-based. The method, then: Example D. PD-L1 Whole Blood Internalization Assay
To determine PD-L1 internalization in human whole blood, normal human blood (Biological Specialty Corp, Colmar. Pa.) was incubated in the presence or absence of a concentration range of test compounds and 1 ng/ml human interferon γ (R&D Systems Inc. Minn. […] Blood was then stained with PD-L1 (MIH1, eBioscience; or BD Biosciences San Jose, Calif.), CD14 (Life Technologies, Carlsbad, Calif.) for 30 minutes in the dark at room temperature. Whole Blood/red cells were lysed/fixed (lysis buffer BD Biosciences) for 5 minutes at 37° C. in the dark and then centrifuged at 1600 RPM for 5 minutes. Cells were resuspended in Stain Buffer (BD Bioscience, San Jose, Calif.) and transferred into 96 well round bottom plates (Corning). Cells were gated on CD14+(BD Biosciences) and PD-L1 expression determined by mean fluorescence intensity (MFI) (BD LSRFortessa™ X-20). IC50 determination was performed by fitting the curve of compound percent inhibition versus the log of the compound concentration using the GraphPad Prism 7.0 software.

The test system of test [1] is U2OS/PD-L1 cells and Jurkat-PD-1-SHP cells. Briefly: Src homology region 2 domain-containing phosphatase (SHP) assay. In kind it is cell-based. Conditions: Homo sapiens, U2OS. On the procedure: Example B. Src Homology Region 2 Domain-Containing Phosphatase (SHP) Assay
U2OS/PD-L1 cells (DiscoveRx Corporation) were maintained in McCoy's 5A medium with addition of 10% FBS, 0.25 μg/ml Puromycin. After removing the culture media, the cell medium was replaced with assay medium (RPMI1640 medium with 1% FBS). The U2OS/PD-L1 cells were then added in 384-well black clear bottom assay plate (CELLCOAT® Tissue Culture Plates, Greiner Bio-One) at 5000 cells per well in 20 μL assay medium. Test compounds were prepared by serial dilution in DMSO and 125 nL compound were first transferred to the 384 REMP plate well (Thermofisher) by ECHO liquid handler (Labcyte) followed with addition of 27.5 μL assay medium. 5 μL/well compounds in the assay medium were transferred to the cell plate with 0.05% DMSO in the final assay at […]. Jurkat-PD-1-SHP cells (DiscoveRx Corporation) were cultured in RPMI1640 medium supplemented with 10% FBS, 250 μg/ml Hygromycin B, 500 μg/ml G418. After the replacement of culture media with assay medium, 5,000 Jurkat-PD-1-SHP cells in 20 μL were dispensed into each well. The assay plate was incubated at 37° C., 5% CO2 for 2 hours before 2.5 μL PathHunter reagent 1 (DiscoveRx Corporation) were added to each well. The assay plate was shaken for 1 min at 350 rpm in the dark followed with addition of 10 μL PathHunter reagent 2 (DiscoveRx Corporation). Chemiluminescent signal was recorded with TopCount reader (Perkin Elmer) after incubation at room temperature for 1 hour. Wells with DMSO were served as the positive controls and wells containing no cells were used as negative controls. IC50 determination was performed by fitting the curve of percentage of control activity versus the log of the compound concentration using the GraphPad Prism 6.0 software.

Test [2] deals with PD-1/PD-L1 protein/protein interaction (recombinant human PD-L1 and human PD-1) (Homo sapiens (Human), UniProt Q9NZQ7). Briefly: Homogeneous Time-Resolved Fluorescence (HTRF) PD-1/PD-L1 binding assay. On the procedure:
Example A. Homogeneous Time-Resolved Fluorescence (HTRF) PD-1/PD-L1 Binding Assay
The assays were conducted in a standard black 384-well polystyrene plate with a final volume of 20 μL. Inhibitors were first serially diluted in DMSO and then added to the plate wells before the addition of other reaction components. The final concentration of DMSO in the assay was 1%. The assays were carried out at 25° C. in the PBS buffer (pH 7.4) with 0.05% Tween-20 and 0.1% BSA. Recombinant human PD-L1 protein (19-238) with a His-tag at the C-terminus was purchased from AcroBiosystems (PD1-H5229). Recombinant human PD-1 protein (25-167) with Fc tag at the C-terminus was also purchased from AcroBiosystems (PD1-H5257). PD-L1 and PD-1 proteins were diluted in the assay buffer and 10 μL was added to the plate well. Plates were centrifuged and proteins were preincubated with inhibitors for 40 minutes. The incubation was followed by the addition of 10 μL of HTRF detection buffer supplemented with Europium cryptate-labeled anti-human IgG (PerkinElmer-AD0212) specific for Fc and anti-His antibody conjugated to SureLight®-Allophycocyanin (APC, PerkinElmer-AD0059H). After centrifugation, the plate was incubated at 25° C. for 60 min. before reading on a PHERAstar FS plate reader (665 nm/620 nm ratio). Final concentrations in the assay were—3 nM PD1, 10 nM PD-L1, 1 nM europium anti-human IgG and 20 nM anti-His-Allophycocyanin. IC50 determination was performed by fitting the curve of percent control activity versus the log of the inhibitor concentration using the GraphPad Prism 5.0 software.
For orientation: In TR-FRET formats the signal depends on donor and acceptor labels being close together.

The subject of test [3] is PD-L1 aAPC/CHO-K1 cells and Jurkat-PD-1-NFAT effector cells. Briefly: Nuclear factor of activated T-cells (NFAT) assay. In kind it is cell-based. Particulars: Cricetulus griseus, CHO-K1. The method, then:
Example C. Nuclear Factor of Activated T-Cells (NFAT) Assay
PD-L1 aAPC/CHO-K1 cells (Promega) were maintained in F-12 medium with addition of 10% FBS, 200 μg/ml Hygromycin B, 250 μg/ml Geneticin (G418). Jurkat-PD-1-NFAT effector cells (Promega) were cultured in RPMI 1640 medium supplemented with 10% FBS, 100 μg/ml Hygromycin B, 500 μg/ml G418. The culture media of PD-L1 aAPC/CHO-K1 cells were first replaced with assay medium (RPMI1640 medium with 1% FBS). The PD-L1 aAPC/CHO-K1 cells were then added in a white 384-well white clear bottom assay plate (CELLCOAT® Tissue Culture Plates, Greiner Bio-One) at 8000 per well in 10 μL assay medium. Test compounds were prepared by serial dilution in DMSO and 0.8 μL test compounds in DMSO were first transferred to the 384 REMP plate well (Thermofisher) by PlateMate Plus (Thermofisher) followed with addition of 50 μL plating medium. 5 μL compounds in the assay medium were transferred to the cells with 0.4% DMSO in the final assay at 2 μM. After removing the culture media, 10,000 Jurkat-PD-1-NFAT effector cells in 5 μL assay medium was dispensed into each well. The assay plate was incubated at 37° C., 5% CO2 for 24 hours. After the assay plate was equilibrated to room temp for 15 minutes, 20 µL/well of Bio-Glo™ reagent (Promega) were added. After 8 minutes incubation at room temperature, luminescence was read at with Pherastar microplate reader (BMG Labtech). The fold of induction (FOI) was calculated based on the ratio of luminescence normalized to the DMSO wells within each assay plate. The maximum percentage of induction was reported based on the ratio between the highest FOI of each compound and the maximum FOI of control compound within each assay plate. Wells with DMSO were served as the negative controls and wells containing control compound with the highest FOI were used as positive controls. EC50 determination was performed by fitting the curve of percent control activity versus the log of the compound concentration using the GraphPad Prism 6.0 software.

PD-L1, sequence (Q9NZQ7 19-290): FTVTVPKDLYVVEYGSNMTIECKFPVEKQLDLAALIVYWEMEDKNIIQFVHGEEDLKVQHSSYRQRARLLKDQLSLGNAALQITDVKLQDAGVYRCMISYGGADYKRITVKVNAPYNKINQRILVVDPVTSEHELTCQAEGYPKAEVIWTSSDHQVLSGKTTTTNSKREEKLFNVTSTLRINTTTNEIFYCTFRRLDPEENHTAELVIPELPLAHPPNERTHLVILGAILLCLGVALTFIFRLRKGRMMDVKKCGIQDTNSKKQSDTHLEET
PD-1/PD-L1 protein/protein interaction (recombinant human PD-L1 and human PD-1), sequence (Q9NZQ7 19-238): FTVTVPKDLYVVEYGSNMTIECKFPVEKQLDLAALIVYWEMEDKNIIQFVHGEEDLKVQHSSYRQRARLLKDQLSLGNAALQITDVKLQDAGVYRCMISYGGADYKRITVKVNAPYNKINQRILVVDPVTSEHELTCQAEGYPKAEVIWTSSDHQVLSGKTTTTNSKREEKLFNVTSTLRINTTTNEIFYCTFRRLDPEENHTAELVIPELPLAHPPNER

For `Cn1c(C(=O)Nc2cccc(-c3cccc(NC(=O)c4nc5c(n4C)CCN(C4CCC(O)CC4)C5)c3Cl)c2Cl)nc2c1CCN(CCC13CCC(C(=O)O)(CC1)C3)C2` (single isomer, unassigned) [60 (compound 1), 4-(2-(2-((2,2′-dichloro-3′-(5-(4-hydroxycyclohexyl)-1-methyl-4,5,6,7-tetrahydro-1H-imidazo[4,5-c]pyridine-2-carboxamido)-[1,1′-biphenyl]-3-yl)carbamoyl)-1-methyl-1,4,6,7-tetrahydro-5H-imidazo[4,5-c]pyridin-5-yl)ethyl)bicyclo[2.2.1]heptane-1-carboxylic Acid], the IC50 – broadly, the concentration that inhibits the measured activity by half – was 10 to 100 nM at PD-L1, at most 10 nM in test [1] and at most 5 nM in test [2]. Moreover, in test [3], the EC50 (commonly the concentration that produces a half-maximal response) was at most 10 nM.

As for `Cn1c(C(=O)Nc2cccc(-c3cccc(NC(=O)c4nc5c(n4C)CCN(C4CCN(C(N)=O)CC4)C5)c3Cl)c2Cl)nc2c1CCN(CCC13CCC(C(=O)O)(CC1)C3)C2` [Example 7, 4-(2-(2-((3′-(5-(1-carbamoylpiperidin-4-yl)-1-methyl-4,5,6,7-tetrahydro-1H-imidazo[4,5-c]pyridine-2-carboxamido)-2,2′-dichloro-[1,1′-biphenyl]-3-yl)carbamoyl)-1-methyl-1,4,6,7-tetrahydro-5H-imidazo[4,5-c]pyridin-5-yl)ethyl)bicyclo[2.2.1]heptane-1-carboxylic acid], the IC50 against PD-L1 was 10 to 100 nM; in test [2], at most 5 nM. The molecule further had an EC50 in test [3] of 10 to 100 nM.

With `Cc1c(NC(=O)c2nc3c(n2C)CCN(C2CCOCC2)C3)cccc1-c1cccc(NC(=O)c2nc3c(n2C)CCN(CCC24CCC(C(=O)O)(CC2)C4)C3)c1Cl` [Example 28, 4-(2-(2-((2-chloro-2′-methyl-3′-(1-methyl-5-(tetrahydro-2H-pyran-4-yl)-4,5,6,7-tetrahydro-1H-imidazo[4,5-c]pyridine-2-carboxamido)-[1,1′-biphenyl]-3-yl)carbamoyl)-1-methyl-1,4,6,7-tetrahydro-5H-imidazo[4,5-c]pyridin-5-yl)ethyl)bicyclo[2.2.1]heptane-1-carboxylic acid], the IC50 at PD-L1 was 10 to 100 nM; in test [2] it was at most 5 nM. This molecule registered an EC50 in test [3] of 10 to 100 nM.

With `Cc1c(NC(=O)c2nc3c(n2C)CCN(C[C@H](C)O)C3)cccc1-c1cccc(NC(=O)c2nc3c(n2C)CCN(CCC24CCC(C(=O)O)(CC2)C4)C3)c1Cl` [Example 32, (S)-4-(2-(2-((2-chloro-3′-(5-(2-hydroxypropyl)-1-methyl-4,5,6,7-tetrahydro-1H-imidazo[4,5-c]pyridine-2-carboxamido)-2′-methyl-[1,1′-biphenyl]-3-yl)carbamoyl)-1-methyl-1,4,6,7-tetrahydro-5H-imidazo[4,5-c]pyridin-5-yl)ethyl)bicyclo[2.2.1]heptane-1-carboxylic acid], the IC50 was 10 to 100 nM against PD-L1 and at most 5 nM in test [2]. Besides, the EC50 in test [3] was 10 to 100 nM.

Consider `Cc1c(NC(=O)c2nc3c(n2C)CCN(CCO)C3)cccc1-c1cccc(NC(=O)c2nc3c(n2C)CCN(CCC24CCC(C(=O)O)(CC2)C4)C3)c1Cl` [Example 33, 4-(2-(2-((2-chloro-3′-(5-(2-hydroxyethyl)-1-methyl-4,5,6,7-tetrahydro-1H-imidazo[4,5-c]pyridine-2-carboxamido)-2′-methyl-[1,1′-biphenyl]-3-yl)carbamoyl)-1-methyl-1,4,6,7-tetrahydro-5H-imidazo[4,5-c]pyridin-5-yl)ethyl)bicyclo[2.2.1]heptane-1-carboxylic acid], for which the IC50 against PD-L1 was 10 to 100 nM; in test [2] it was at most 5 nM. In addition, in test [3], the EC50 was 10 to 100 nM.

As for `Cn1c(C(=O)Nc2cccc(-c3cccc(NC(=O)c4nc5c(n4C)CCN(CCC46CCC(C(=O)O)(CC4)C6)C5)c3Cl)c2Cl)nc2c1CCN(CCCCC(=O)O)C2` [Example 63, 4-(2-(2-((3′-(5-(4-carboxybutyl)-1-methyl-4,5,6,7-tetrahydro-1H-imidazo[4,5-c]pyridine-2-carboxamido)-2,2′-dichloro-[1,1′-biphenyl]-3-yl)carbamoyl)-1-methyl-1,4,6,7-tetrahydro-5H-imidazo[4,5-c]pyridin-5-yl)ethyl)bicyclo[2.2.1]heptane-1-carboxylic acid], the results for the IC50 (at PD-L1; in test [2]) were 10 to 100 nM and at most 5 nM, respectively. In test [3], this molecule came in with an EC50 of 10 to 100 nM.

Regarding `CN(C)C(=O)CCCCN1CCc2c(nc(C(=O)Nc3cccc(-c4cccc(NC(=O)c5nc6c(n5C)CCN(CCC57CCC(C(=O)O)(CC5)C7)C6)c4Cl)c3Cl)n2C)C1` [Example 64, 4-(2-(2-((2,2′-dichloro-3′-(5-(5-(dimethylamino)-5-oxopentyl)-1-methyl-4,5,6,7-tetrahydro-1H-imidazo[4,5-c]pyridine-2-carboxamido)-[1,1′-biphenyl]-3-yl)carbamoyl)-1-methyl-1,4,6,7-tetrahydro-5H-imidazo[4,5-c]pyridin-5-yl)ethyl)bicyclo[2.2.1]heptane-1-carboxylic Acid], the half-inhibitory concentration (IC50) was 10 to 100 nM at PD-L1 and at most 5 nM in test [2]. In test [3], this molecule showed an EC50 of at most 10 nM.
